Test [1] relates to HIF2α. The test can be described thus: HIF2α protein levels in MELAS cybrid cells (immunoblot). It counts as cell-based, human. Here is the method: FIGS. 10A-10E: The reduction of MNRR1 in MELAS cells is via HIF2α acting at the ORE and not the HRE. FIG. 10A: Above, Equal amounts of MELAS cell lysates, treated with vehicle (DMSO) or increasing amounts of tizoxanide (2.5 to 40 μM) for 24 h, were separated on an SDS-PAGE gel and probed for HIF2α, MNRR1, and Tubulin. Below, Protein quantification for MNRR1 and HIF2α relative to Tubulin. FIG. 10B: Dual luciferase reporter assay showing relative activation of MNRR1-luciferase in MELAS cybrid cells overexpressing WT (FIG. 9A), Δ 801-952 (FIG. 9A), ΔORE (positions 47-53 of SEQ ID NO: 25 in FIG. 9C) or ΔHRE (positions 59-66 of SEQ ID NO: 25 in FIG. 9C). FIG. 10C: Dual luciferase reporter assay showing relative activation of HRE-luciferase levels in cybrid cells with 0% (CL9) and 70% MELAS heteroplasmy (DW7). […]
Immunoblotting: Immunoblotting was performed as described previously. […] The clear supernatants were transferred to new tubes and quantified using the Bradford reagent with BSA as standard (BioRad, Hercules. CA). […] For detection after immunoblotting, the SuperSignal™ West Pico PLUS substrate (ThermoFisher, Waltham, MA) was used to generate chemiluminescence signal, which was detected with X-Ray film (RadTech, Vassar, MI).

The subject of test [2] is HIF2α. Put plainly: HIF2α transcript levels (RT-PCR). It counts as cell-based, human. The note with it: 18S rRNA as housekeeper. The source says: FIG. 13: RT-PCR for measuring HIF2α levels. 18S rRNA was used as housekeeper for both analyses (n=3 biological replicates).
Real-time polymerase chain reaction (RT-PCR): Total cellular RNA was extracted from MELAS cells with a RNeasy Plus Mini Kit (Qiagen) according to the manufacturer's instructions. Complementary DNA (cDNA) was generated by reverse transcriptase polymerase chain reaction (PCR) using the ProtoScript® II First Strand cDNA Synthesis Kit (New England Biolabs, Ipswich, MA). Transcript levels were measured by real time PCR using SYBR green on an ABI 7500 system. Real-time analysis was performed by the ΔΔ^Ct method. The primers used were MNRR1 forward: 5′-[…]-3′ (SEQ ID NO: 9), reverse: 5′-[…]-3′ (SEQ ID NO: 10); 18s forward: 5′-[…]-3′ (SEQ ID NO: 11), reverse: 5′-[…]-3′ (SEQ ID NO: 12), PHD1(EGLN2) forward: 5′-[…]-3′ (SEQ ID NO: 13), reverse: 3′-TCCTTGGCATCAAAATACC-5′ [32](SEQ ID NO: 14); PHD3(EGLN3) forward 5′-[…]-3′ (SEQ ID NO: 15), reverse: 3′-ATGCAGGTGATGCAGCGA-5′ [33](SEQ ID NO: 16) and HIF2α (EPAS1) forward: 5′-[…]-3′ (SEQ ID NO: 17), reverse: 3′-[…]-5′ (SEQ ID NO: 18).

Structures are written as SMILES.

Consider 2 compounds from patent US20250241901A1, “ACTIVATION OF MNRR1 / CHCHD2 AS A THERAPEUTIC TARGET FOR MITOCHONDRIA ASSOCIATED DISORDERS” (Wayne State University, priority 2024, published 2025).

`CC(=O)Oc1ccccc1C(=O)Nc1ncc([N+](=O)[O-])s1` [nitazoxanide, Nitazoxanide]: the “levels of HIF2α” value with HIF2α [1] (MELAS cells) was “reduces”. In addition, the HIF2α transcript levels entry in the test with HIF2α [2] is “absence of any change”.
As to `O=C(Nc1ncc([N+](=O)[O-])s1)c1ccccc1O` [tizoxanide, Tizoxanide], the “HIF2α protein levels relative to MNRR1” value in the test with HIF2α [1] (MELAS cybrid cells, 2.5 to 40 μM, 24 h) was “inversely proportional in a concentration dependent manner to MNRR1”. In addition, the HIF2α transcript levels result with HIF2α [2] is reported as “absence of any change”.
